The source of these data is US10894798B2, “Substituted dihydropyrrolopyrazole derivative” (UBE INDUSTRIES, LTD., priority 2015, dated 2021).

As a reminder, the IC50 is the concentration needed to halve the response being measured.

Assay type in all cases: cell-based
For one assay, the system named is lymphoma cell line SR. As to the kind of experiment: Various human cancer cell growth inhibition test: SR. Particulars: ATPlite, read-out: GI50 value (concentration necessary for inhibiting 50% of cell growth). The text has this: (§1) A breast cancer cell line BT-549 (obtained from American Type Culture Collection (ATCC)), a uterus cancer cell line C-33A (obtained from ATCC), an ovary cancer cell line PA-1 (obtained from ATCC), a large-cell lung cancer cell line NCI-H460 (obtained from ATCC), a small-cell lung cancer cell line NCI-H82 (obtained from ATCC), a kidney cancer cell line ACHN (obtained from ATCC), a pancreatic cancer cell line BxPC-3 (obtained from ATCC), a malignant melanoma cell line A375 (obtained from ATCC), a throat cancer cell line FaDu (obtained from ATCC), a medulloblastoma cell line Daoy (obtained from ATCC), a cutaneous epithelioid sarcoma cell line VA-ES-BJ (obtained from ATCC), a rhabdomyosarcoma cell line A-204 (obtained from ATCC), a prostate cancer cell line DU145 (obtained from ATCC), a bladder cancer cell line T24 (obtained from ATCC), a lymphoma cell line SR (obtained from ATCC), a neuroblastoma cell line SH-SY5Y (obtained from DS Pharma Biomedical Co., Ltd.), a liver cancer cell line HepG2 (obtained from DS Pharma Biomedical Co., Ltd.), a stomach cancer cell line HGC-27 (obtained from DS Pharma Biomedical Co., Ltd.), and a multiple myeloma cell line NCI-H929 (obtained from DS Pharma Biomedical Co., Ltd.) were used as human cancer cell lines.
(§2) Each cell line was cultured in a cell culture medium recommended by ATCC or DS Pharma Biomedical Co., Ltd. and inoculated at 0.3 to 5.0×10^3 cells/well to a 96-well plate. The cells were cultured overnight in a carbon dioxide incubator of 37° C. containing 5% carbon dioxide. The medium was replaced with a fresh medium on the next day, then replaced with a mixed solution of a DMSO solution of a test compound with varying concentrations and a culture medium (final DMSO concentration: 0.1%), and left standing in a carbon dioxide incubator (day 0). IV-361, IV-379, IV-3, IV-215, IV-299, IV-669, IV-1049, and palbociclib (for comparison) were used as test compounds. For a control group, DMSO was added instead of the DMSO solution of the test compound to a cell culture medium (final DMSO concentration: 0.1%).
(§3) After culture for a predetermined period, the ATP activity of BT-549, C-33A, PA-1, NCI-H460, NCI-H82, ACHN, BxPC-3, A375, FaDu, Daoy, VA-ES-BJ, A-204, DU145, T24, and SR was measured by using ATPlite (manufactured by PerkinElmer, Inc.). The ATP activity of SH-SY5Y, HepG2, HGC-27, and NCI-H929 was measured by using CellTiter-Glo (manufactured by Promega Corp.).
(§4) The rate of inhibition of cell growth (%) was calculated according to the expression given below. Specifically, in the case where the difference between the ATP activity before culture (day 0) and the ATP activity after culture in the test compound-administered group is the same as the difference between the ATP activity before culture (day 0) and the ATP activity after culture in the control group, the rate of inhibition of cell growth is 0%. Rate of inhibition of cell growth=(1−((ATP activity of the test compound-administered group after culture)−(ATP activity of the test compound-administered group on day 0))/((ATP activity of the control group after culture)−(ATP activity of the control group on day 0)))×100
(§5) The concentration of the test compound necessary for inhibiting 50% of cell growth (GI50 value) was calculated by using EXSUS (version 8.1.0, manufactured by CAC Exicare Corp.).

Assay [1] concerns liver cancer cell line HepG2. The assay is described as follows: Various human cancer cell growth inhibition test: HepG2. To be noted: CellTiter-Glo, read-out: GI50 value (concentration necessary for inhibiting 50% of cell growth).
Text: as §1, §2, §3, §4, §5
Background: Cellular ATP, detected with luciferase, serves as a proxy for viable cell number.

The subject of assay [2] is cutaneous epithelioid sarcoma cell line VA-ES-BJ. The assay is described as follows: Various human cancer cell growth inhibition test: VA-ES-BJ. To be noted: ATPlite, read-out: GI50 value (concentration necessary for inhibiting 50% of cell growth).
Text: as §1, §2, §3, §4, §5

The next assay relates to IL-2 production. The assay is described as follows: Human PBMC CD3/CD28-induced IL-2 production inhibition test. Particulars: 48 h; human PBMC, CD3/CD28 stimulation, culture for 2 days, ELISA; read-out: IC50 value, IL-2 production inhibition. Here is the method: PBMC (peripheral blood mononuclear cell) was separated and collected by using Ficoll-Paque (manufactured by GE Healthcare Japan Corp.) from blood collected from a healthy human adult in the presence of heparin. A RPMI1640 medium containing 10% FBS, 1% penicillin/streptomycin/amphotericin B, essential amino acids, and pyruvic acid and containing a test compound dissolved in DMSO and 2 μg/mL CD28 was added at 100 μL/well to T cell Activation Plate Anti-Human CD3 96-well plate (manufactured by Becton, Dickinson and Company), and subsequently, a PBMC suspension prepared such that the number of cells was 2×10^6 cells/mL was added thereto at 100 μL/well (final DMSO concentration: 0.1%). A RPMI1640 medium containing 10% FBS and containing 0.1% DMSO and 2 μg/mL CD28 was similarly added to wells not supplemented with the test compound. After culture for 2 days in a carbon dioxide incubator, the culture supernatant was collected. The collected culture supernatant was stored at −20° C. until IL-2 content measurement.
In the measurement of an L-2 content in the culture supernatant, a sandwich ELISA kit (Quantikine Human IL-2, manufactured by R&D Systems, Inc.) was used. The L-2 content of each sample was calculated from the calibration curve of Standard IL-2 included in the kit. […] A test compound concentration necessary for inhibiting 50% of L-2 production (IC50 value) was calculated from the concentration of the added test compound and the rate of inhibition of IL-2 production by the test compound by using EXSUS (version 8.1.0, manufactured by CAC Exicare Corp.).
In general terms: ELISA stands for enzyme-linked immunosorbent assay.

Assay [3] has as its system rhabdomyosarcoma cell line A-204. As to the kind of experiment: Various human cancer cell growth inhibition test: A-204. To be noted: A204, ATPlite, read-out: GI50 value (concentration necessary for inhibiting 50% of cell growth).
Text: as §1, §2, §3, §4, §5

Assay [4] deals with throat cancer cell line FaDu. The assay is described as follows: Various human cancer cell growth inhibition test: FaDu. Particulars: ATPlite, read-out: GI50 value (concentration necessary for inhibiting 50% of cell growth).
Text: as §1, §2, §3, §4, §5

Assay [5] concerns bladder cancer cell line T24. As to the kind of experiment: Various human cancer cell growth inhibition test: T24. To be noted: ATPlite, read-out: GI50 value (concentration necessary for inhibiting 50% of cell growth).
Text: as §1, §2, §3, §4, §5

Assay [6] has as its system ovary cancer cell line PA-1. The assay is described as follows: Various human cancer cell growth inhibition test: PA-1. Particulars: ATPlite, read-out: GI50 value (concentration necessary for inhibiting 50% of cell growth).
Text: as §1, §2, §3, §4, §5

Assay [7] relates to prostate cancer cell line DU145. The assay is described as follows: Various human cancer cell growth inhibition test: DU145. Particulars: DU 145, ATPlite, read-out: GI50 value (concentration necessary for inhibiting 50% of cell growth).
Text: as §1, §2, §3, §4, §5

The subject of assay [8] is malignant melanoma cell line A375. The assay is described as follows: Various human cancer cell growth inhibition test: A375. To be noted: A-375, ATPlite, read-out: GI50 value (concentration necessary for inhibiting 50% of cell growth).
Text: as §1, §2, §3, §4, §5

Regarding `CC1(C)c2[nH]nc(NC(=O)C3([Si](C)(C)C)CCC3)c2CN1C(=O)Nc1ccccc1F` [IV-3, N-(2-Fluorophenyl)-6,6-dimethyl-3-[1-(trimethylsilyl)cyclobutanecarboxamido]-4,6-dihydropyrrolo[3,4-c]pyrazole-5(1H)-carboxamide], the GI50 in the assay on lymphoma cell line SR is under 300 nM; in assay [1], 300 to 1000 nM; in assay [2], under 300 nM; in assay [3], under 300 nM; in assay [4], under 300 nM; in assay [5], under 300 nM. Moreover, the GI50 in assay [6], in assay [7] and in assay [8] was under 300 nM in each case. For the same compound, the IC50 in the assay on IL-2 production is at most 100 nM.
Turning to `Cc1cccc(Cl)c1NC(=O)N1Cc2c(NC(=O)C3([Si](C)(C)C)CCC3)n[nH]c2C1(C)C` [IV-215, N-(2-Chloro-6-methylphenyl)-6,6-dimethyl-3-[1-(trimethylsilyl)cyclobutanecarboxamido]-4,6-dihydropyrrolo[3,4-c]pyrazole-5 (1H)-carboxamide], the GI50 (with lymphoma cell line SR; in assay [1]; in assay [2]; in [3]; in assay [4]; in assay [5]) was under 300 nM each time. The GI50 in assay [6], in assay [7] and in assay [8] was under 300 nM in each case. In the assay on IL-2 production, the IC50 was at most 100 nM.
For `Cc1cccc(Br)c1NC(=O)N1Cc2c(NC(=O)C3([Si](C)(C)C)CCC3)n[nH]c2C1(C)C` [IV-299, N-(2-Bromo-6-methylphenyl)-6,6-dimethyl-3-[1-(trimethylsilyl)cyclobutanecarboxamido]-4,6-dihydropyrrolo[3,4-c]pyrazole-5 (1H)-carboxamide], the GI50 in the assay on lymphoma cell line SR is under 300 nM; in assay [1], 300 to 1000 nM; in assay [2], under 300 nM; in assay [3] it was under 300 nM; in assay [4], under 300 nM; in assay [5], under 300 nM. Moreover, the GI50 in [6], in assay [7] and in assay [8] was under 300 nM throughout. For the same compound, in the assay on IL-2 production, the IC50 is at most 100 nM.
Regarding `Cc1ccc(F)cc1NC(=O)N1Cc2c(NC(=O)C3([Si](C)(C)C)CCC3)n[nH]c2C1(C)C` [IV-361, N-(5-Fluoro-2-methylphenyl)-6,6-dimethyl-3-[1-(trimethylsilyl)cyclobutanecarboxamido]-4,6-dihydropyrrolo[3,4-c]pyrazole-5 (1H)-carboxamide], the GI50 in the assay on lymphoma cell line SR is under 300 nM; in [1] it was 300 to 1000 nM; in assay [2] it was under 300 nM; in [3], under 300 nM; in [4], under 300 nM; in assay [5] it was under 300 nM. Moreover, the GI50 in assay [6], in assay [7] and in assay [8] was under 300 nM throughout. The IC50 in the assay with IL-2 production is at most 100 nM.
Turning to `Cc1ccc(C)c(NC(=O)N2Cc3c(NC(=O)C4([Si](C)(C)C)CCC4)n[nH]c3C2(C)C)c1` [IV-379, N-(2,5-Dimethylphenyl)-6,6-dimethyl-3-[1-(trimethylsilyl)cyclobutanecarboxamido]-4,6-dihydropyrrolo[3,4-c]pyrazole-5(1H)-carboxamide], the GI50 (in the assay on lymphoma cell line SR; in assay [1]; in assay [2]; in assay [3]; in [4]; in assay [5]) was under 300 nM each time. Also, the GI50 in assay [6], in assay [7] and in assay [8] was under 300 nM each time. The IC50 with IL-2 production was at most 100 nM.
In the case of `Cc1ccc(C)c(NC(=O)N2Cc3c(NC(=O)C4([Si](C)(C)C)CCC4)n[nH]c3C2(C)C)c1F` [IV-669, N-(2-Fluoro-3,6-dimethylphenyl)-6,6-dimethyl-3-[1-(trimethylsilyl)cyclobutanecarboxamido]-4,6-dihydropyrrolo[3,4-c]pyrazole-5(1H)-carboxamide], the GI50 (in the assay with lymphoma cell line SR; in assay [1]; in assay [2]; in assay [3]; in assay [4]; in assay [5]) was under 300 nM in each case. Further, the GI50 in [6], in [7] and in [8] was under 300 nM in each case. Besides, the IC50 with IL-2 production is at most 100 nM.
Consider `CC1(C)c2[nH]nc(NC(=O)C3([Si](C)(C)C)CCC3)c2CN1C(=O)Nc1c(F)ccc2ccoc12` [IV-1049, N-(6-Fluorobenzofuran-7-yl)-6,6-dimethyl-3-[1-(trimethylsilyl)cyclobutanecarboxamido]-4,6-dihydropyrrolo[3,4-c]pyrazole-5 (1H)-carboxamide], for which the GI50 (in the assay on lymphoma cell line SR; in [1]; in assay [2]; in assay [3]; in [4]; in assay [5]) was under 300 nM each time. The GI50 in assay [6], in assay [7] and in assay [8] was under 300 nM each time. For the same compound, the IC50 with IL-2 production was at most 100 nM.
